In experiment [1] the test system is HCV genotype 1a (H77 strain) replicon in HUH-7 cells. In words: HCV replicon luciferase reporter assay, genotype 1a. It is filed as cell-based. The settings on record: Hepatitis C virus, Huh-7, 72 h, HCV genotype 1a replicon luciferase, 3 days incubation. In outline: (§1)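 Replicon inhibition for both genotypes was measured as Renilla luciferase signal (EnduRen, 7.5 μM final, 2 h) after 3-day, 37° C exposure of replicon-bearing HUH-7 cells in 4% FCS DMEM, 0.5% DMSO. The 1b construct carries S1179I; the 1a H77 construct carries P1496L and S2204I. Twenty-point, 3-fold dilutions were fitted four-parametrically for EC50, and CC50 was taken from multiplexed Cell Titer-Blue.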
(In general: In antiviral work, replicon cells carry a viral genome segment that copies itself.)

The subject of experiment [2] is HCV genotype 1b (Con1) replicon in HUH-7 cells. In words: HCV replicon luciferase reporter assay, genotype 1b. It is filed as cell-based. To be noted: Hepatitis C virus, Huh-7, 72 h, HCV genotype 1b replicon luciferase, 3 days incubation. In outline: as §1

Each structure is given as a SMILES string. pEC50: −log10 of the molar value. Read-outs that look alike come from different tables or passages of the source.

As a reminder, the pEC50 is the EC50 on a negative log10 scale, so that one unit is a factor of ten. Consider `COc1nnc(O[C@@H]2C[C@H]3C(=O)N[C@]4(C(=O)NS(=O)(=O)C5CC5)C[C@H]4/C=C\CC[C@H](C)C[C@@H](C)[C@H](NC(=O)OC(C)(C)C)C(=O)N3C2)c2ccccc12` [Compound 5003, tert-butyl ((2R,6S,7R,9S,13aS,14aR,16aS,Z)-14a-((cyclopropylsulfonyl)carbamoyl)-2-((4-methoxyphthalazin-1-yl)oxy)-7,9-dimethyl-5,16-dioxo-1,2,3,5,6,7,8,9,10,11,13a,14,14a,15,16,16a-hexadecahydrocyclopropa[e]pyrrolo[1,2-a][1,4]diazacyclopentadecin-6-yl)carbamate], for which the pEC50 is 8.26 in experiment [1] (read-out: LE_1a (EC50)); 6.99 to 8.32 in experiment [1] (read-out: LE_1a (EC50, range)); 8.71 in experiment [2] (read-out: LE_1b (EC50)); greater than 8.26 in experiment [2] (read-out: LE_1b (EC50, range)).

As to `COc1nnc(O[C@@H]2C[C@H]3C(=O)N[C@]4(C(=O)NS(=O)(=O)C5CC5)C[C@H]4/C=C\CC[C@@H](C)C[C@@H](C)[C@H](NC(=O)OC(C)(C)C)C(=O)N3C2)c2ccccc12` [Compound 5004, tert-butyl ((2R,6S,7R,9R,13aS,14aR,16aS,Z)-14a-((cyclopropylsulfonyl)carbamoyl)-2-((4-methoxyphthalazin-1-yl)oxy)-7,9-dimethyl-5,16-dioxo-1,2,3,5,6,7,8,9,10,11,13a,14,14a,15,16,16a-hexadecahydrocyclopropa[e]pyrrolo[1,2-a][1,4]diazacyclopentadecin-6-yl)carbamate], the negative logarithm of the EC50 (pEC50) in experiment [1] (read-out: LE_1a (EC50, range)) was greater than 8.26; in experiment [2] (read-out: LE_1b (EC50, range)), greater than 8.26.

In the case of `COc1nnc(O[C@@H]2C[C@H]3C(=O)N[C@]4(C(=O)NS(=O)(=O)C5CC5)C[C@H]4/C=C\CC[C@H](C)C[C@@H](C)[C@H](NC(=O)OC(C)(C)C(F)(F)F)C(=O)N3C2)c2ccccc12` [Compound 5005, 1,1,1-trifluoro-2-methylpropan-2-yl((2R,6S,7R,9S,13aS,14aR,16aS,Z)-14a-((cyclopropylsulfonyl)carbamoyl)-2-((4-methoxyphthalazin-1-yl)oxy)-7,9-dimethyl-5,16-dioxo-1,2,3,5,6,7,8,9,10,11,13a,14,14a,15,16,16a-hexadecahydrocyclopropa[e]pyrrolo[1,2-a][1,4]diazacyclopentadecin-6-yl)carbamate], the pEC50 in experiment [1] (read-out: LE_1a (EC50, range)) is greater than 8.26; in experiment [2] (read-out: LE_1b (EC50, range)), greater than 8.26.

For the compound `COc1nnc(O[C@@H]2C[C@H]3C(=O)N[C@]4(C(=O)NS(=O)(=O)C5CC5)C[C@H]4/C=C\CC[C@@H](C)C[C@@H](C)[C@H](NC(=O)OC(C)(C)C(F)(F)F)C(=O)N3C2)c2ccccc12` [Compound 5006, 1,1,1-trifluoro-2-methylpropan-2-yl((2R,6S,7R,9R,13aS,14aR,16aS,Z)-14a-((cyclopropylsulfonyl)carbamoyl)-2-((4-methoxyphthalazin-1-yl)oxy)-7,9-dimethyl-5,16-dioxo-1,2,3,5,6,7,8,9,10,11,13a,14,14a,15,16,16a-hexadecahydrocyclopropa[e]pyrrolo[1,2-a][1,4]diazacyclopentadecin-6-yl)carbamate], the pEC50 in experiment [1] (read-out: LE_1a (EC50, range)) was greater than 8.26; in experiment [2] (read-out: LE_1b (EC50, range)), greater than 8.26.

Turning to `COc1nnc(O[C@@H]2C[C@H]3C(=O)N[C@]4(C(=O)NS(=O)(=O)C5(C)CC5)C[C@H]4/C=C\CC[C@H](C)C[C@@H](C)[C@H](NC(=O)OC(C)(C)C(F)(F)F)C(=O)N3C2)c2ccccc12` [Compound 5007, 1,1,1-trifluoro-2-methylpropan-2-yl((2R,6S,7R,9S,13aS,14aR,16aS,Z)-2-((4-methoxyphthalazin-1-yl)oxy)-7,9-dimethyl-14a-(((1-methylcyclopropyl)sulfonyl)carbamoyl)-5,16-dioxo-1,2,3,5,6,7,8,9,10,11,13a,14,14a,15,16,16a-hexadecahydrocyclopropa[e]pyrrolo[1,2-a][1,4]diazacyclopentadecin-6-yl)carbamate], the pEC50 in experiment [1] (read-out: LE_1a (EC50, range)) is greater than 8.26; in experiment [2] (read-out: LE_1b (EC50, range)) it was greater than 8.26.

Values taken from US9499550B2 (BRISTOL-MYERS SQUIBB COMPANY, priority 2012, dated 2016).
